Assay results taken from ChEMBL document CHEMBL4837205, “Design, synthesis and biological evaluations of a series of Pyrido[1,2-a]pyrimidinone derivatives as novel selective FGFR inhibitors” (Eur J Med Chem, 2021).
Converted amounts (≈) assume the structure as drawn.

Experiment: physchem
Conditions: buffer, pH 7.4

| Structure (SMILES) | solubility |
| --- | --- |
| COc1cc(OC)cc(N(CCNC(C)C)c2ccc3ncc(-c4cnn(CCN(C)C)c4)c(=O)n3c2)c1 | < 0.01 mg/mL |
| COc1cc(OC)cc(N(CCNC(C)C)c2ccc3ncc(-c4cnn(C5CN(C(C)=O)C5)c4)c(=O)n3c2)c1 | 0.0591 mg/mL (≈ 108 µM) |
